The text below walks through data of patent US7256185B1, “Control of selective estrogen receptor modulators” (Eastern Virginia Medical School, priority 1997, dated 2007).

How the values of the assay were obtained: 1. Clomiphene is used alone at 100 mg/day for the treatment of endometriosis. […] Levonorgestrel at 75 mcg/day is then also administered.
2. Raloxifene at 500 mg/day and medroxprogesterone acetate at 12 mg/day were administrated to treat leiomyoma.
5. Clomiphene is used alone at 100 mg/day for the treatment of endometriosis. […] Danazol at 100 to 800 mg/day is then also administered.

Where [1] appears, read: clomiphene ZU isomer 50 mg/day and norgestimate 100 mcg/day coadministered.
[2] abbreviates: raloxifene 500 mg/day and medroxprogesterone acetate 12 mg/day administered together, leiomyoma.

Where two headings read alike, the source gives them in different places.

As to `CCN(CC)CCOc1ccc(/C(=C(\Cl)c2ccccc2)c2ccccc2)cc1` (single isomer, unassigned) [Clomiphene ZU isomer], the serum estrogen entry under setting [1] is on record as “remained at physiological levels”.
Consider `CC(=O)O[C@]1(C(C)=O)CC[C@H]2[C@@H]3C[C@H](C)C4=CC(=O)CC[C@]4(C)[C@H]3CC[C@@]21C` [medroxprogesterone acetate], for which, under setting [2], the serum estrogen result was “remained at physiological levels”.
Take `C#C[C@]1(OC(C)=O)CC[C@H]2[C@@H]3CCC4=CC(=NO)CC[C@@H]4[C@H]3CC[C@@]21CC` (mixture of isomers) [norgestimate]: the serum estrogen result under setting [1] is given as “remained at physiological levels”.
With `C#C[C@]1(O)CC[C@H]2[C@@H]3CCC4=Cc5oncc5C[C@]4(C)[C@H]3CC[C@@]21C` [Danazol, danazol], under “danazol 100 to 800 mg/day added to clomiphene 100 mg/day after serum estrogen reached 500 pg/ml, endometriosis”, the serum estrogen result is reported as “retreated to physiological value”.
Take `O=C(c1ccc(OCCN2CCCCC2)cc1)c1c(-c2ccc(O)cc2)sc2cc(O)ccc12` [Raloxifene]: under setting [2], the serum estrogen entry is given as “remained at physiological levels”.
